# Reference: article PMC9911596 (Nature Communications, 2023)
# Biological target: T1, Vtc1/Vtc3/Vtc4 complex (VTC complex) (Saccharomyces cerevisiae, UniProt P47075+Q02725, Q02725:Y22F/Q02725:K26A/Q02725:K130A)
# T1 construct: full-length subunits co-expressed in Expi293F; Vtc1 C-terminal HA, Vtc3 N-terminal 3xFlag, Vtc4 C-terminal 2xStrep; detergent-purified; 3:1:1 pentamer; with Vacuolar transporter chaperone complex subunit 1
# T1 sequence (P47075 1-721): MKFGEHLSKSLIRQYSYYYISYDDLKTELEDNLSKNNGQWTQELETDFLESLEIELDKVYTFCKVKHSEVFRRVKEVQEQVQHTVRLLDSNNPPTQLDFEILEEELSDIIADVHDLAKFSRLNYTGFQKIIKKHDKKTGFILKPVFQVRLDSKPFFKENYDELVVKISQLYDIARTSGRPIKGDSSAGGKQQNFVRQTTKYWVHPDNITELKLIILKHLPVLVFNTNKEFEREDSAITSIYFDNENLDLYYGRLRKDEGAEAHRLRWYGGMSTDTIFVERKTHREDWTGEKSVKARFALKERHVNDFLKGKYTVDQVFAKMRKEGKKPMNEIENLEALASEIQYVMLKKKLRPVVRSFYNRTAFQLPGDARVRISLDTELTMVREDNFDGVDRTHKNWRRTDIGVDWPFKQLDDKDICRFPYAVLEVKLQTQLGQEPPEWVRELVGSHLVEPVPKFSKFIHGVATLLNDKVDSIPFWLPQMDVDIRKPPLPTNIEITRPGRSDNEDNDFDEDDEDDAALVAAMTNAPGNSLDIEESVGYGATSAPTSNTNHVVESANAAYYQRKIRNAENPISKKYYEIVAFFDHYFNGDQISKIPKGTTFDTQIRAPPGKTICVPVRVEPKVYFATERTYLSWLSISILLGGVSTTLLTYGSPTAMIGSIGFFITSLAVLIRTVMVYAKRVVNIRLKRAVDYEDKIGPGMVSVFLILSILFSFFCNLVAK
# T1 sequence (Q02725 1-835 Y22F/K26A/K130A): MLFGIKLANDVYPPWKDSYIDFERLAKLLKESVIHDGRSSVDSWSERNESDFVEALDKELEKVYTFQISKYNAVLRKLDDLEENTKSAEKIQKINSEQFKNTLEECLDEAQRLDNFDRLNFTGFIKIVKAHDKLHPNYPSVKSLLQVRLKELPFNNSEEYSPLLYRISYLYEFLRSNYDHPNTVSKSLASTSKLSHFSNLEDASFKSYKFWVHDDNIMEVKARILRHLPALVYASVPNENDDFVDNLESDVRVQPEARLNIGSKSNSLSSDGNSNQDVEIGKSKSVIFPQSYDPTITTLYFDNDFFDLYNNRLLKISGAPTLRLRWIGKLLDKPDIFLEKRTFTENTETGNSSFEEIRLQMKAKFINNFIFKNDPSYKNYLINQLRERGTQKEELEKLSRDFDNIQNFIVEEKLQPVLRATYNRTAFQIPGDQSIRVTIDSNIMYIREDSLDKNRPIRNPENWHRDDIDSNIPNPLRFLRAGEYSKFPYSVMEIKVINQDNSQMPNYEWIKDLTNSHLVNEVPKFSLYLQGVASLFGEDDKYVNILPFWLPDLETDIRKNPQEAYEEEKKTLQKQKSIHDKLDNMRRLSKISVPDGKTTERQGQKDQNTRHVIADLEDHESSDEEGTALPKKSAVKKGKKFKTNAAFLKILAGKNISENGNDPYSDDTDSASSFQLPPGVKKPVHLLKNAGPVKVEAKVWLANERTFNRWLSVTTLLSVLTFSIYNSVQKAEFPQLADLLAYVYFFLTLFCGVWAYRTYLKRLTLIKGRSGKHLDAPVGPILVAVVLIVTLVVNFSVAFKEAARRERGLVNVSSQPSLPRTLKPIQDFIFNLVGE
# T1 sequence (P40046 2-129 partner): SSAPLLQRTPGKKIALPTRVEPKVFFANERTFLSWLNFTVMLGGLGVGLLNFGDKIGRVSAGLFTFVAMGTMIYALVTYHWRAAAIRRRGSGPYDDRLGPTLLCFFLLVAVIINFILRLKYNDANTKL
# Test: polyP synthesis, TBE-PAGE
# Format: biochemical
# Conditions: activator; 15 mM ATP, 10 mM MgCl2, 1 mM MnCl2, 0.5 mM pyrophosphate, 27 °C, 4 h; SPX PBC mutant
compound,measurement,value
O=P(O)(O)O[C@H]1[C@H](OP(=O)(O)O)[C@@H](OP(=O)(O)O)[C@H](OP(=O)(O)O)[C@@H](OP(=O)(O)O)[C@H]1OP(=O)(O)O [InsP6],"polyP synthesis, TBE-PAGE",residues had little effect on polyP synthesis
